Data set [1] has as its system HCG. The class given is in vivo, rabbit.
Data set [2] deals with HCG. Description: Antibody level to HCG in immunized mice (^125I antigen, double antibody technique). It counts as in vivo. As to conditions: for Antibody level to CG: 52 days; for Antibody Level to HCG: mice, carrier series.
For data set [3], the system named is peptide used in the conjugate (Structure (II), (XII), (XIV), (X)). Put plainly: Antibody level to the peptide of the conjugate in immunized mice (^125I antigen, double antibody technique). It counts as in vivo. As to conditions: for Antibody level to Structure (XII): 52 days; for Antibody Level to Peptide: mice, carrier series.
Another data set deals with Friends' Leukemia Virus. Description: Survival of immunized SJL/J mice inoculated with Friends' Leukemia Virus. It counts as in vivo. Also on record: concentration or dose not given beside the values. An excerpt: The mice used in this experiment were six-week old female mice of SJL/J strain. A test group and a control group, each containing approximately 20 mice were selected at random and were immunized in the same manner as in Example XXXVI above, the test animals receiving the vaccine containing the peptide/diphtheria toxoid conjugate and the control group receiving the vaccine containing only the vehicle. However, in this experiment a different immunization schedule was followed: the original immunization was followed by booster immunizations 4, 9, 20 and 29 weeks later. Six weeks after the first immunization (i.e. two weeks after the second immunization) each mouse was injected with approximately 1 million Friends' Leukemia Virus and the mice were observed daily for deaths.

For data set [4], the system named is Ridgeway Osteogenic Sarcoma. Description: Growth of Ridgeway Osteogenic Sarcoma in immunized AKR mice. It counts as in vivo. An excerpt: Sixty mice of the AKR strain were divided at random into a test group and a control group each comprising 30 mice. The test group were then immunized in the same manner as in Examples XXXVI and XXXVII with a vaccine comprising the same conjugate as in those Examples dissolved in Freund's Complete Adjuvant, while the control group simply received the Freund's Adjuvant. Booster Immunizations were given to each group three and seven weeks after the first immunization. […] In the mice in which the tumor survived, tumor volume measurements were made 22, 26, 29, 31, 33, 38, 40 and 43 days after innoculation with the Sarcoma. […] Nevertheless, the results in Table 27 do show a significant reduction in the rate of tumor growth in the conjugate-immunized mice.

Data set [5] deals with female baboons. Put plainly: Fertility rates (matings and pregnancies) of immunized female baboons. It counts as in vivo, baboon. As to conditions: for Fertility Rate (%) / No. Pregnant: female baboons.
Another data set relates to baboons. Description: Breeding of immunized baboons (pre-mate titer, ovulation, pregnancy), Diazo-β-HCG presensitized, Diazo-β-HCG-(111-145) booster. It counts as in vivo, baboon. As to conditions: for Pre-Mate Titer: baboon 2, matings No. 1-10 over approximately one year. The method, then: Baboons were immunized initially with a beta subunit of HCG modified by diazotization in a manner similar to that described in conjunction with Example II. Following this initial administration, the baboons were injected 21 and 42 days later with the peptide of Structure (II) above which had been modified by the same diazotization process. The levels were maintained for a period of over one year.
The Table presents the results of mating these animals ten times over a period of approximately one year. […] Such cross reactivity may be avoided by the utilization of the fragment conjugation procedures set forth in detail hereinabove.

Data set [6] relates to female baboons.
For the next data set, the system named is progesterone. As to conditions: female baboons.
The mark [7] stands for this setting: post-immunization menstrual cycle 1.
Setting [8] is: post-immunization menstrual cycle 2.
Setting [9] is: post-immunization menstrual cycle 3.
Where [10] appears, read: post-immunization menstrual cycle 4.
Where [11] appears, read: post-immunization menstrual cycle 5.
[12] abbreviates: pre-immunization menstrual cycle −1.
Where [13] appears, read: pre-immunization menstrual cycle −2.
The mark [14] stands for this setting: pre-immunization menstrual cycle −3.

Where two headings read alike, the source gives them in different places. Ends that are not written are not given here.

Take `CC(=O)N[C@H]1C(O)O[C@H](CO)[C@@H](O)[C@@H]1OCC(=O)N[C@@H](C)C(=O)N[C@H](CCC(=O)O)C(N)=O` (some centres unmarked) [CGP 11637, NAc-nor Mur-L. Ala-D. iso Gln]: the “Mean Antibody Level-^125I-HCG” value in the data set with HCG [1] (as E193, 4 weeks) is on record as 177.8 M/L × 10^10; in the data set with HCG [1] (as E193, 5 weeks), 211.9 M/L × 10^10; with HCG [1] (as E193, 6 weeks) it was 297.2 M/L × 10^10; in the data set on HCG [1] (as E193, 7 weeks), 381.2 M/L × 10^10; in the data set on HCG [1] (as E193, 8 weeks), 418.6 M/L × 10^10; with HCG [1] (as E193, 9 weeks), 480.0 M/L × 10^10. Besides, the “Mean Antibody Level-^125I-HCG” value with HCG [1] (as E193, 10 weeks) is recorded as 708.6 M/L × 10^10; in the data set with HCG [1] (as E193, 11 weeks), 628.5 M/L × 10^10; with HCG [1] (as E193, 12 weeks), 398.5 M/L × 10^10; with HCG [1] (in vivo), 16.3 M/L × 10^10. Also, the “HCG antibody levels compared with rabbits receiving adjuvants CGP 16940 and 12908” value in the data set with HCG [1] (in vivo) is on record as “significantly greater”. Besides, the “Antibody level to CG” value in the data set with HCG [2] stood at 18.3 ng/mL; in the data set with HCG [2] (C3H/He mice, same conjugate), 21.5 ng/mL; with HCG [2] (DBA mice, same conjugate), 10.6 ng/mL; with HCG [2] (SJL mice, same conjugate) it was 13.8 ng/mL. Moreover, the “Antibody level to Structure (XII)” value in data set [3] was determined as 70.9 ng/mL; in data set [3] (C3H/He mice, same conjugate), 84.0 ng/mL; in [3] (DBA/1 mice, same conjugate) it was 42.5 ng/mL; in [3] (SJL mice, same conjugate), 60.1 ng/mL.

Turning to `CCC(NC(=O)COC1C(O)C(CO)OC(O)C1NC(C)=O)C(=O)NC(CCC(=O)O)C(N)=O` [CGP 14767, NAc-nor-Mur-L-Abu-D.isoGln], the “Antibody level to CG” value in the data set with HCG [2] worked out at 21.0 ng/mL; in the data set with HCG [2] (C3H/He mice, same conjugate), 21.4 ng/mL; in the data set with HCG [2] (DBA mice, same conjugate), 11.1 ng/mL; in the data set with HCG [2] (SJL mice, same conjugate), 5.4 ng/mL. Further, the “Antibody level to Structure (XII)” value came to 53.0 ng/mL in [3]; 74.9 ng/mL in data set [3] (C3H/He mice, same conjugate); 22.2 ng/mL in data set [3] (DBA/1 mice, same conjugate); 91.6 ng/mL in [3] (SJL mice, same conjugate).

Regarding “Conjugate (TCDDPRFQDSSSSKAPPPSLPSPSRLPGPSDTPILPQ; also: conjugated to foreign carrier; listed as Homo sapiens)”, the “Survival Rate - %” value in the data set with Friends' Leukemia Virus (0 days after inoculation with Friends' Leukemia Virus), in the data set on Friends' Leukemia Virus (22 days after inoculation), in the data set on Friends' Leukemia Virus (29 days after inoculation), in the data set on Friends' Leukemia Virus (98 days after inoculation (day of booster immunization)), in the data set on Friends' Leukemia Virus (160 days after inoculation) and with Friends' Leukemia Virus (163 days after inoculation (day of booster immunization)) was 100.0% each time. The “Survival Rate - %” value in the data set on Friends' Leukemia Virus (166 days after inoculation), in the data set with Friends' Leukemia Virus (175 days after inoculation) and in the data set on Friends' Leukemia Virus (180 days after inoculation) was 100.0% each time. In addition, the “Mean Tumor Volume - cm^3” value in data set [4] (day 22 of tumor growth) turned out to be 0.65 cm^3; in [4] (day 26 of tumor growth), 0.68 cm^3; in data set [4] (day 29 of tumor growth) it was 1.20 cm^3; in [4] (day 31 of tumor growth), 2.24 cm^3; in data set [4] (day 33 of tumor growth) it was 3.04 cm^3; in data set [4] (day 36 of tumor growth), 3.14 cm^3. Further, the “Mean Tumor Volume - cm^3” value in data set [4] (day 38 of tumor growth) is 4.40 cm^3; in data set [4] (day 40 of tumor growth), 5.54 cm^3; in data set [4] (day 43 of tumor growth), 5.00 cm^3. Further, the “Fertility Rate (%)” value in the data set on female baboons [5] (mating cycle 1) came to 0%; in the data set with female baboons [5] (mating cycle 2) it was 6.7%; in the data set on female baboons [5] (mating cycle 3) it was 7.1%; in the data set on female baboons [5] (totals of mating cycles 1-3), 4.6%. In addition, the “No. Pregnant” value in the data set with female baboons [5] (mating cycle 1) stood at 0; with female baboons [5] (mating cycle 2) it was 1; in the data set on female baboons [5] (mating cycle 3), 1; in the data set with female baboons [5] (totals of mating cycles 1-3), 2.

Consider “Diazo-β-HCG-(111-145): peptide of Structure (II) modified by diazotization, booster after presensitization with diazotized beta subunit of HCG (DDPRFQDSSSSKAPPPSLPSPSRLPGPSDTPILPQ; diazo conjugate; UniProt P0DN86 131-165, looked up, fragment)”, for which the “Pre-Mate Titer” value came to 4.10 in the data set on baboons (before Mating No. 2); 4.00 with baboons (before Mating No. 3); 3.89 with baboons (before Mating No. 4); 3.76 with baboons (before Mating No. 5); 5.00 with baboons (before Mating No. 6); 4.75 in the data set with baboons (before Mating No. 7). Besides, the entries for the “Pre-Mate Titer” value in the data set on baboons (before Mating No. 8) and in the data set with baboons (before Mating No. 9) were 4.20 and 4.25, respectively. Besides, the “antibody cross reactivity with LH” value in the data set on baboons (in vivo) is “antibody cross reactivity with LH was observed”.

For the compound “N-Palmitoyl-S-[2(R,S)-3-dipalmitoyloxy-propyl]-L-Cys-L-Ser-L-Ser-L-Asn-L-Ala-L-Glu [CGP 16940]”, the “HCG antibody levels compared with the CFA immunized rabbits” value with HCG [1] (in vivo) is recorded as “significantly lower”. Besides, the “Antibody level to CG” value with HCG [2] was 1.0 ng/mL; with HCG [2] (C3H/He mice, same conjugate) it was below 1.0 ng/mL; in the data set with HCG [2] (DBA mice, same conjugate), below 1.0 ng/mL; in the data set on HCG [2] (SJL mice, same conjugate) it was 8.6 ng/mL. The “Antibody level to Structure (XII)” value in data set [3] turned out to be 110.0 ng/mL; in [3] (C3H/He mice, same conjugate) it was 19.2 ng/mL; in data set [3] (DBA/1 mice, same conjugate) it was 173.0 ng/mL; in data set [3] (SJL mice, same conjugate), 369.0 ng/mL.

Turning to “Structure (XII): residues 109-145 of beta-HCG, SEQ ID NO: 13; unconjugated in Table 11 (carrier None) (TCDDPRFQDSSSSKAPPPSLPSPSRLPGPSDTPILPQ; listed as Homo sapiens)”, the “Antibody Level to HCG” value with HCG [2] (21 days) and in the data set on HCG [2] (35 days) was 0.1 ng/mL each time. Besides, the “Antibody Level to Peptide” value in data set [3] (peptide of Structure (XII), 21 days after primary immunization) stood at 1.3 ng/mL; in data set [3] (35 days) it was 0.8 ng/mL.

For the compound diphtheria toxoid, the “Cycle Length (days), Mean” value with female baboons [6] (setting [7]) is listed as 32.7 days; with female baboons [6] (setting [8]), 33.1 days; with female baboons [6] (setting [9]), 34.0 days; with female baboons [6] (setting [10]), 30.0 days; in the data set on female baboons [6] (setting [11]), 31.0 days; in the data set on female baboons [6] (setting [12]) it was 33.2 days. Moreover, the “Cycle Length (days), Mean” value with female baboons [6] (setting [13]) is listed as 33.5 days; in the data set on female baboons [6] (setting [14]), 34.4 days. The “Luteal phase Progesterone (ng/ml), Mean” value in the data set on progesterone (setting [7]) is 4.3 ng/mL; in the data set with progesterone (setting [8]), 6.0 ng/mL; in the data set with progesterone (setting [9]), 7.0 ng/mL; in the data set on progesterone (setting [10]), 5.9 ng/mL; with progesterone (setting [11]), 6.0 ng/mL; in the data set on progesterone (setting [12]) it was 6.0 ng/mL. The entries for the “Luteal phase Progesterone (ng/ml), Mean” value with progesterone (setting [13]) and in the data set with progesterone (setting [14]) were 6.8 ng/mL and 6.9 ng/mL, respectively. The same compound had a Fertility Rate in the data set with female baboons [5] (Example XXXV, all matings of three mating cycles, CGP 11637, Squalene/Arlacel A) of 70%. Besides, the “Fertility Rate (%)” value in the data set with female baboons [5] (mating cycle 1) amounted to 73.3%; with female baboons [5] (mating cycle 2), 75.0%; with female baboons [5] (mating cycle 3), 0%; with female baboons [5] (totals of mating cycles 1-3), 70.0%. In addition, the “No. Pregnant” value with female baboons [5] (mating cycle 1) came to 11; in the data set on female baboons [5] (mating cycle 2), 3; with female baboons [5] (mating cycle 3), 0; with female baboons [5] (totals of mating cycles 1-3), 14. The pregnancies in total with female baboons [5] (in vivo) stood at 14.
